Data from publication PMC5404542, “In Vitro and In Vivo Antifungal Profile of a Novel and Long-Acting Inhaled Azole, PC945, on Aspergillus fumigatus Infection” (Antimicrobial Agents and Chemotherapy, 2017).
≈ marks a conversion by molar mass, not a printed value. Where two headings read alike, the source gives them in different places. Marks after values point to notes of the source that are not given here.

How the values were obtained:
A. fumigatus = A. fumigatus sterol analysis by GC-MS; type: cell-based, Aspergillus fumigatus; settings: 2 h
Experimental: A working suspension of A. fumigatus spores was prepared in filter-sterilized MOPS-RPMI 1640 (RPMI 1640 medium containing 2 mM L-glutamine, 2% glucose, and 0.165 M MOPS, buffered to pH 7 with NaOH) to a final concentration of 8 × 10^6 spores ml^-1. […] Samples for baseline determinations were collected by scraping, pelleted by centrifugation at 2,000 rpm for 5 min, and stored at -80°C. Test compounds or DMSO (50 μl) was added to the remaining dishes, which were subsequently gently rocked by hand to disperse the compounds. […] Samples were collected and processed as described above. […] These samples were prepared in the laboratory at Pulmocide Ltd. and sent to the laboratory at the Centre for Cytochrome P450 Biodiversity, Institute of Life Science, […] University Medical School, for experimentation. Nonsaponifiable lipids were extracted as previously reported ([29]) and were derivatized with 0.1 ml N,O-bis(trimethylsilyl)trifluoroacetamide:trimethylchlorosilane (99:1) and 0.3 ml anhydrous pyridine (2 h at 80°C) prior to analysis by gas chromatography-mass spectrometry ([38]). Sterol composition was calculated using peak areas from the gas chromatograms, and the mass fragmentation patterns compared to known standards were used to confirm sterol identity. The sterol contents of A. fumigatus (basal) and treated A. fumigatus (treated with either DMSO, posaconazole, or PC945) were determined.

[1] = test system: Aspergillus carbonarius (ATCC 8740); test: MIC, CLSI; type: cell-based; settings: ATCC8740, 1 strain, CLSI, read-out: MIC
[2] = test system: Aspergillus flavus (ATCC 204304); test: MIC, CLSI; type: cell-based; settings: ATCC204304, 1 strain, CLSI, read-out: MIC
[3] = test system: Aspergillus flavus (AFL8, NRRC3357); test: MIC, EUCAST; type: cell-based; settings: 2 strains, EUCAST, mean isolate MIC, read-out: MIC
[4] = test system: Penicillium chrysogenum (ATCC 9480); test: MIC, CLSI; type: cell-based; settings: ATCC9480, 1 strain
[5] = test system: Penicillium citrinum (ATCC 9849); test: MIC, CLSI; type: cell-based; settings: ATCC9849, 1 strain
[6] = test system: Trichophyton rubrum (ATCC 10218); test: MIC, CLSI; type: cell-based; settings: ATCC10218, 1 strain
[7] = test system: AR Candida albicans (20183.073, 20186.025); test: MIC, CLSI; type: cell-based; settings: read-out: MIC (the MIC given is the MIC50)
[8] = test system: Candida glabrata (ATCC 36583, R363); test: MIC, CLSI; type: cell-based; settings: Nakaseomyces glabratus, ATCC36583; 2 strains, CLSI, mean isolate MIC; read-out: MIC (the MIC given is the MIC50)
[9] = test system: Chaetomium globosum (ATCC 44699); test: MIC, CLSI; type: cell-based; settings: ATCC44699, 1 strain
[10] = test system: Lichtheimia corymbifera (ATCC 7909); test: MIC, CLSI; type: cell-based; settings: ATCC7909, 1 strain
[11] = test system: 96 clinically isolated A. fumigatus strains; test: MIC against 96 clinically isolated strains (EUCAST, visual)
Experimental: Conidia were added across the plate to a final concentration of 1 × 10^5 ml^−1. […] Determination of antifungal activity against 50 A. fumigatus clinical isolates from St. Louis Hospital (Paris, France) was performed with 96-well plates, using the modified EUCAST method in the presence of 0.5% BSA as described above. Antifungal susceptibility testing of 46 A. fumigatus isolates (obtained from the NW England Mycology Reference Centre) was performed by Evotec UK Ltd. (Manchester, United Kingdom) according to EUCAST guidelines.

[12] = test system: A. fumigatus (ATCC 13073 [strain NIH 5233]); test: In vivo antifungal activity, intranasal treatment of temporarily neutropenic immunocompromised mice; settings: for incidence of rolling behavior: 14 μg/mouse intranasally once daily
Experimental: The mice were reared on a standard diet and tap water ad libitum. […] Conidia were aseptically dislodged from the agar plates and suspended in sterile distilled water with 0.05% Tween 80 and 0.1% agar. […] On day 0, 30 μl of the conidial suspension was administered intranasally.
Test agents suspended in physiological saline were administered daily intranasally (35 μl) on days 1 to 6, and the survival of animals was recorded for 7 days. […] Deaths and the body weights of surviving animals were monitored daily. A body weight loss of >20% compared to an animal's weight on day 1 and mouse death were both defined as “dropout” events. Animals that lost >20% of their initial body weight were sacrificed. […] Bronchoalveolar lavage fluid (BALF) was collected on day 7 postinfection or on the day that the mouse dropped out of the study. The Aspergillus GM concentration in BALF was determined by use of Platelia GM-EIA kits (Bio-Rad Laboratories). The value was provided as the “cutoff index” (COI), which was calculated by the following formula: COI = OD in sample/OD in cutoff control (provided by the kit).

[13] = 96 clinical isolates, determined visually
[14] = Aspergillus fumigatus, read-out: MIC, Geometric mean
[15] = Aspergillus fumigatus, read-out: MIC, Mode
[16] = 0.56 μg/mouse intranasally once daily days 1 to 6
[17] = 2.8 μg/mouse intranasally once daily days 1 to 6
[18] = 14 μg/mouse intranasally once daily days 1 to 6
[19] = 70 μg/mouse intranasally once daily days 1 to 6

SMILES: Cc1cc(N2CCN(c3ccc(C(=O)Nc4ccc(F)cc4)cc3)CC2)ccc1OC[C@@H]1CO[C@@](Cn2cncn2)(c2ccc(F)cc2F)C1 [PC945, 4-[4-(4-{[(3R,5R)-5-(2,4-difluorophenyl)-5-(1H-1,2,4-triazol-1-ylmethyl)oxolan-3-yl]methoxy}-3-methylphenyl)piperazin-1-yl]-N-(4-fluorophenyl)benzamide]
- Sterol content in cells, Eburicol (A. fumigatus; 0.0001 μg/ml): 0%
- Sterol content in cells, Ergost-5,7-dienol (A. fumigatus; 0.0001 μg/ml): 4.1%
- Sterol content in cells, Ergosterol (A. fumigatus; 0.0001 μg/ml): 95.9%
- Sterol content in cells, Lanosterol (A. fumigatus; 0.0001 μg/ml): 0%
- Sterol content in cells, Eburicol (A. fumigatus; 0.001 μg/ml): 2.7%
- Sterol content in cells, Ergost-5,7-dienol (A. fumigatus; 0.001 μg/ml): 2.5%
- Sterol content in cells, Ergosterol (A. fumigatus; 0.001 μg/ml): 94.7%
- Sterol content in cells, Lanosterol (A. fumigatus; 0.001 μg/ml): 0%
- Sterol content in cells, Eburicol (A. fumigatus; 0.01 μg/ml): 6.5%
- Sterol content in cells, Ergost-5,7-dienol (A. fumigatus; 0.01 μg/ml): 3.3%
- Sterol content in cells, Ergosterol (A. fumigatus; 0.01 μg/ml): 86.7%
- Sterol content in cells, Lanosterol (A. fumigatus; 0.01 μg/ml): 3.6%
- Sterol content in cells, Eburicol (A. fumigatus; 0.1 μg/ml): 13.2%
- Sterol content in cells, Ergost-5,7-dienol (A. fumigatus; 0.1 μg/ml): 0%
- Sterol content in cells, Ergosterol (A. fumigatus; 0.1 μg/ml): 80.6%
- Sterol content in cells, Lanosterol (A. fumigatus; 0.1 μg/ml): 6.2%
- Sterol content in cells, Eburicol (A. fumigatus; 1 μg/ml): 19.3%
- Sterol content in cells, Ergost-5,7-dienol (A. fumigatus; 1 μg/ml): 0%
- Sterol content in cells, Ergosterol (A. fumigatus; 1 μg/ml): 71.3%
- Sterol content in cells, Lanosterol (A. fumigatus; 1 μg/ml): 9.4%
- MIC [1]: 4 µg/mL (≈ 5.86 µM)
- MIC [2]: > 8 µg/mL
- MIC [3]: 6 µg/mL (≈ 8.79 µM)
- MIC [4]: > 8 µg/mL
- MIC [5]: > 8 µg/mL
- MIC [6]: 0.031 µg/mL (≈ 0.0454 µM)
- MIC50 [7]: 8.25 µg/mL (≈ 12.1 µM)
- MIC50 [8]: 0.5 µg/mL (≈ 0.732 µM)
- MIC [9]: > 8 µg/mL
- MIC [10]: > 8 µg/mL
- concentration up to which growth was not completely inhibited ([11]; 5 of the 13 posaconazole-resistant isolates, NW Mycology Centre): > 8 µg/mL
- fold more potent than voriconazole, based on the geometric mean ([11]; 96 clinical isolates): 2.5 fold
- MIC90 [11, 13]: 1 µg/mL (≈ 1.46 µM)
- MIC, Geometric mean [11, 13]: 0.17* μg/ml
- MIC50 ([11]; Aspergillus fumigatus): 0.125 µg/mL (≈ 0.183 µM)
- MIC90 ([11]; Aspergillus fumigatus): 1 µg/mL (≈ 1.46 µM)
- MIC [11, 14]: 0.17 µg/mL (≈ 0.249 µM)
- MIC [11, 15]: 0.125 µg/mL (≈ 0.183 µM)
- Median days of survival [12, 16]: 6 days
- No. of survivors on day 7/total no. of mice [12, 16]: 4/8
- survivors on day 7 (%) [12, 16]: 50%
- Median days of survival [12, 17]: 6.5 days
- No. of survivors on day 7/total no. of mice [12, 17]: 5/8
- survivors on day 7 (%) [12, 17]: 63%
- incidence of rolling behavior [12]: substantially inhibited
- Median days of survival [12, 18]: Undefined
- No. of survivors on day 7/total no. of mice [12, 18]: 10/16
- survivors on day 7 (%) [12, 18]: 63%

SMILES: CC[C@@H]([C@H](C)O)n1ncn(-c2ccc(N3CCN(c4ccc(OC[C@@H]5CO[C@@](Cn6cncn6)(c6ccc(F)cc6F)C5)cc4)CC3)cc2)c1=O [Posaconazole, posaconazole]
- Sterol content in cells, Eburicol (A. fumigatus; 0.0001 μg/ml): 2.2%
- Sterol content in cells, Ergost-5,7-dienol (A. fumigatus; 0.0001 μg/ml): 3.3%
- Sterol content in cells, Ergosterol (A. fumigatus; 0.0001 μg/ml): 94.5%
- Sterol content in cells, Lanosterol (A. fumigatus; 0.0001 μg/ml): 0%
- Sterol content in cells, Eburicol (A. fumigatus; 0.001 μg/ml): 5.9%
- Sterol content in cells, Ergost-5,7-dienol (A. fumigatus; 0.001 μg/ml): 3.9%
- Sterol content in cells, Ergosterol (A. fumigatus; 0.001 μg/ml): 87.2%
- Sterol content in cells, Lanosterol (A. fumigatus; 0.001 μg/ml): 3.0%
- Sterol content in cells, Eburicol (A. fumigatus; 0.01 μg/ml): 18.3%
- Sterol content in cells, Ergost-5,7-dienol (A. fumigatus; 0.01 μg/ml): 0%
- Sterol content in cells, Ergosterol (A. fumigatus; 0.01 μg/ml): 74.7%
- Sterol content in cells, Lanosterol (A. fumigatus; 0.01 μg/ml): 7.0%
- Sterol content in cells, Eburicol (A. fumigatus; 0.1 μg/ml): 23.4%
- Sterol content in cells, Ergost-5,7-dienol (A. fumigatus; 0.1 μg/ml): 0%
- Sterol content in cells, Ergosterol (A. fumigatus; 0.1 μg/ml): 67.8%
- Sterol content in cells, Lanosterol (A. fumigatus; 0.1 μg/ml): 8.8%
- Sterol content in cells, Eburicol (A. fumigatus; 1 μg/ml): 23.8%
- Sterol content in cells, Ergost-5,7-dienol (A. fumigatus; 1 μg/ml): 0%
- Sterol content in cells, Ergosterol (A. fumigatus; 1 μg/ml): 67.4%
- Sterol content in cells, Lanosterol (A. fumigatus; 1 μg/ml): 8.8%
- MIC [1]: 0.063 µg/mL (≈ 0.0899 µM)
- MIC [2]: 0.13 µg/mL (≈ 0.186 µM)
- MIC [3]: 0.16 µg/mL (≈ 0.228 µM)
- MIC [4]: 0.13 µg/mL (≈ 0.186 µM)
- MIC [5]: 0.5 µg/mL (≈ 0.713 µM)
- MIC [6]: 0.031 µg/mL (≈ 0.0442 µM)
- MIC50 [7]: 8.13 µg/mL (≈ 11.6 µM)
- MIC50 [8]: 0.5 µg/mL (≈ 0.713 µM)
- MIC [9]: 0.25 µg/mL (≈ 0.357 µM)
- MIC [10]: > 8 µg/mL
- MIC, Range [11, 13]: 0.016 to 2 µg/mL
- MIC50 ([11]; Aspergillus fumigatus): 0.063 µg/mL (≈ 0.0899 µM)
- MIC90 ([11]; Aspergillus fumigatus): 0.5 µg/mL (≈ 0.713 µM)
- MIC ([11]; Aspergillus fumigatus, ATCC204305, read-out: MIC, quality control strain): 0.25 µg/mL (≈ 0.357 µM)
- MIC [11, 14]: 0.1 µg/mL (≈ 0.143 µM)
- MIC [11, 15]: 0.032 µg/mL (≈ 0.0457 µM)
- Median days of survival [12, 17]: 5 days
- No. of survivors on day 7/total no. of mice [12, 17]: 1/8
- survivors on day 7 (%) [12, 17]: 13%
- incidence of rolling behavior [12]: not
- Median days of survival [12, 18]: 6 days
- No. of survivors on day 7/total no. of mice [12, 18]: 7/16
- survivors on day 7 (%) [12, 18]: 44%
- Median days of survival [12, 19]: Undefined
- No. of survivors on day 7/total no. of mice [12, 19]: 6/8
- survivors on day 7 (%) [12, 19]: 75%
